Experimental data from patent US20260327628A1, “AN RNA APTAMER THAT BINDS TO ASP7967 OR AN ANALOGUE THEREOF” (priority 2022, published 2026).

Key:
AC17-4 RNA aptamer = test: Affinity measurement by ITC, AC17-4; assay type: binding; conditions: 37 °C
Protocol: ITC experiments were carried out as described previously^26 with some modifications. Template DNA for in vitro transcription was prepared by primer extension using Q5 High-Fidelity DNA Polymerase. AC17-4 RNA aptamer (5′-[…]-3′ (SEQ ID NO: 50)) was prepared using HiScribe T7 High Yield RNA Synthesis Kit (NEB) according to the manufacturer's instructions. The transcription product (100 μl) was treated with 2 U TURBO DNase at 37° C. for 30 min. The RNA was precipitated with ammonium acetate and ethanol and dissolved in water. The solution was further extracted with phenol-chloroform and ethanol precipitated. The RNA was purified by denaturing polyacrylamide gel electrophoresis (PAGE) and the main band was extracted from the gel with TE buffer (10 mM Tris-HCl, pH 7.0, 0.1 mM EDTA). […] RNA concentration was determined by absorbance at 260 nm according to OligoCalc. […]
Titration was performed at 37° C. using MicroCal PEAQ-ITC (Malvern). […] Raw data were analysed by MicroCal PEAQ-ITC analysis software ver. […]
Conventional SELEX requires immobilization of the target molecule on solid phase on which an RNA pool containing randomized sequences are applied. […] The sequences enriched during the SELEX experiment were analyzed by high-throughput (Illumina) sequencing. […]

cpAC17-4 RNA aptamer = test: Affinity measurement by SPR, cpAC17-4 immobilized chip; assay type: binding; conditions: cpAC17-4 with 3′ poly(A) tail
Protocol: Affinity measurements of the aptamers with the ligands by SPR were performed as described by Chang et al.^53 with some modifications. Experiments were performed on Biacore T200 (Cytiva) at 25° C. For immobilization of the capture DNA (5′-/5AmMC6/[…]-3′ (SEQ ID NO: 32),/5AmMC6/: 5′ amino modifier C6, IDT), 1×HBS-N (10 mM HEPES, pH 7.4, 150 mM NaCl) was used as the running buffer. CM5 chip surface was washed by two injections of NaOH/NaCl solution (25 mM NaOH, 1 M NaCl) at 20 μl min^−1 for 30 s. […]
The dsDNA templates for in vitro transcription of the aptamers were prepared by primer extension of two oligo DNAs using Q5 High-Fidelity DNA Polymerase (NEB). […] RNA concentrations were determined by absorbance at 260 nm according to OligoCalc^54. […] An aptamer ligand was injected at 30 μl min^−1 for 120 s to monitor association, and then the dissociation kinetics was monitored for 180 s in the SPR running buffer. […] The raw data were analysed by Biacore T200 Evaluation Software 1.0 using 1:1 Langmuir interaction model. […] Dissociation constant (KD) was determined from the ratio of the association and the dissociation rate constants (KD=koff/kon) or by equilibrium analysis. […]

Kd (AC17-4 RNA aptamer): 48 nM
Kd (cpAC17-4 RNA aptamer): 30 nM
Structure (SMILES): Fc1ccc(Nc2nc(NCc3ncccn3)nc(Nc3ccccc3)n2)cc1 [ASP2905, reference compound]
